This assay concerns the target T1, Gag-Pol polyprotein [600-1027,R876K]/[600-1155] (Human immunodeficiency virus 1, UniProt P03366, R876K).
T1 construct: 600-1027; 600-1155
Put plainly: HIV-1 RT Assay.

For `O=C1Nc2c(CO)ccnc2N(C2CC2)c2ncccc21`, 3000 nM corresponded to half-maximal inhibition (pH 7.8, 22 °C) (IC50).
Compound `Nc1ccc(OCc2ccnc3c2NC(=O)c2cccnc2N3C2CC2)cc1` [7-(4-aminophenoxymethyl)-2-cyclopropyl-2,4,9,15-tetraazatricyclo[9.4.0.0^{3,8}]pentadeca-1(11),3,5,7,12,14-hexaen-10-one] came in with an IC50 of 100 nM.

The values are drawn from BindingDB's records for doi:10.1021/jm00024a011 (Boehringer Ingelheim Pharmaceuticals, 1995).
